Source: PubChem BioAssay (NCI)
“And” between values parts separate entries of the source, which are not always exact repeats. Equal entries are not always repeated.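 How tested: cells in 96-well plates exposed to compound for 48 hours at five concentrations. GI50 is the concentration that inhibits growth by half. TGI: total growth inhibition.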

Tests used:
Assay in all cases: NCI-60 cell line screen, 48 h
[1] = tested on: A549 NSCLC
[2] = tested on: ACHN renal
[3] = tested on: CCRF-CEM leukemia
[4] = tested on: HCT-116 colon
[5] = tested on: HT29 colon
[6] = tested on: MOLT-4 leukemia
[7] = tested on: NCI-H23 lung
[8] = tested on: SNB-19 CNS
[9] = tested on: UACC-257 melanoma
[10] = tested on: UACC-62 melanoma

For ClCCn1cnc2c(SCc3ccccc3)ncnc21, the GI50 [1] was 1.22 µM, the TGI [1] was 76.5 µM and the GI50 [2] was 4.99 µM. For the same compound, the TGI [2] was over 100 µM, the GI50 [3] was 0.889 µM and the TGI [3] was over 100 µM. It also gave a GI50 [4] of 0.381 µM, a TGI [4] of 38.4 µM and a GI50 [5] of 0.872 µM. The TGI [5] was over 100 µM, the GI50 [6] was 0.823 µM and the TGI [6] was over 100 µM. The GI50 [7] was 29.2 µM, the TGI [7] was over 100 µM and the GI50 [8] was 2.61 µM. It also gave a TGI [8] of over 100 µM, a GI50 [9] of 14.1 µM and a TGI [9] of over 100 µM. For the same compound, the GI50 [10] was 6.65 µM and the TGI [10] was over 100 µM.
OC1CCC(Oc2cccc3cnc(Nc4ccc5nc[nH]c5c4)nc23)CC1 (centres undefined) was tested, and the GI50 [1] was 0.404 µM, the TGI [1] was 19.7 µM and the GI50 [2] was 0.313 µM. For the same compound, the TGI [2] was over 100 µM, the GI50 [3] was 0.282 µM and the TGI [3] was 17.3 µM. For the same compound, the GI50 [4] was 0.191 µM, the TGI [4] was 12 µM and the GI50 [5] was 0.437 µM. It also gave a TGI [5] of 9.15 µM, a GI50 [6] of 0.157 µM and a TGI [6] of 0.636 µM. It also gave a GI50 [7] of 0.21 µM, a TGI [7] of 1.63 µM and a GI50 [8] of 0.407 µM. For the same compound, the TGI [8] was 49.6 µM, the GI50 [9] was 1.2 µM and the TGI [9] was 8.92 µM. For the same compound, the GI50 [10] was 0.573 µM and the TGI [10] was 7.26 µM.
In the case of CCOC(OC1=C(C#N)CCC1)C(CC)[Se]c1ccccc1 (centres undefined), the TGI [1] is reported as over 100 µM, the TGI [2] is reported as 81.9 µM and the TGI [3] is reported as over 100 µM. For the same compound, the TGI [4] was 57.6 µM, the TGI [5] was 80.5 µM and the TGI [6] was 48.8 µM. It also gave a TGI [7] of 25.1 µM, a TGI [8] of over 100 µM and a TGI [9] of over 100 µM. For the same compound, the TGI [10] was 61.9 µM.
CC(C)(C)C([O-])=C1C(=O)c2ccccc2C1=O.CC(C)(C)C([O-])=C1C(=O)c2ccccc2C1=O.CC[O-].CC[O-].[Ti+4] was tested, and the GI50 [1] was 36.2 µM, the TGI [1] was over 100 µM and the GI50 [2] was 35.2 µM. It also gave a TGI [2] of over 100 µM, a GI50 [3] of 38.8 µM and a TGI [3] of over 100 µM. It also gave a GI50 [4] of 37.7 µM, a TGI [4] of over 100 µM and a GI50 [5] of 32.9 µM. It also gave a TGI [5] of over 100 µM, a GI50 [6] of 22.4 µM and a TGI [6] of 61.9 µM. It also gave a GI50 [7] of 31.8 µM, a TGI [7] of over 100 µM and a GI50 [8] of 40.8 µM. The TGI [8] was over 100 µM, the GI50 [9] was 30.4 µM and the TGI [9] was 96.9 µM. It also gave a GI50 [10] of 11.9 µM and a TGI [10] of 28.8 µM.
Work on N#C/C(=C(\O)C(=O)O)c1ccc(-c2cccc3ccccc23)cc1 yielded a TGI [1] of over 100 µM, a TGI [2] of over 100 µM and a TGI [3] of over 100 µM. For the same compound, the TGI [4] was over 100 µM, the TGI [5] was over 100 µM and the TGI [6] was 12.2 µM. For the same compound, the TGI [7] was over 100 µM, the TGI [8] was over 100 µM and the TGI [9] was over 100 µM. The TGI [10] was over 100 µM.
For CC(O)C(NC(=O)C(CS)NC(=O)C(CO)NC(=O)C(CCCCN)NC(=O)C(Cc1c[nH]c2ccccc12)NC(=O)C(Cc1ccc(O)cc1)NC(=O)C(CS)NC(=O)C(N)Cc1ccccc1)C(N)=O (centres undefined), the GI50 [1] was 18.7 µM, the TGI [1] was > 25 µM and 51.6 µM and the GI50 [2] was 20.5 µM. For the same compound, the TGI [2] was > 25 µM and 44.5 µM, the GI50 [3] was 19.7 µM and the TGI [3] was > 25 µM and 43.3 µM. For the same compound, the GI50 [4] was 32.9 µM, the TGI [4] was over 100 µM and the TGI [5] was > 25 µM and 61.4 µM. For the same compound, the TGI [6] was > 25 µM and 67.4 µM, the TGI [7] was > 25 µM and 68 µM and the TGI [8] was 63.4 µM. For the same compound, the TGI [9] was > 25 µM and 65.9 µM and the TGI [10] was > 25 µM and 57.8 µM.
CC1=CC[C@@H]2C(C)(C)[C@@H](O)CC[C@@]2(C)[C@@H]1COc1ccc2ccc(=O)oc2c1 was tested, and the GI50 [1] was 5.68 µM, the TGI [1] was 22.8 µM and the GI50 [2] was 5.11 µM. It also gave a TGI [2] of 19.6 µM, a GI50 [3] of 3.39 µM and a TGI [3] of 19.9 µM. The GI50 [4] was 4.6 µM, the TGI [4] was 18.7 µM and the GI50 [5] was 9.83 µM. For the same compound, the TGI [5] was 44.6 µM, the GI50 [6] was 3.14 µM and the TGI [6] was 15.7 µM. For the same compound, the GI50 [7] was 10.8 µM, the TGI [7] was 33 µM and the GI50 [8] was 14.3 µM. It also gave a TGI [8] of 42.9 µM, a GI50 [9] of 12.4 µM and a TGI [9] of 26.2 µM. For the same compound, the GI50 [10] was 3.52 µM and the TGI [10] was 14.5 µM.
For CCOC(=O)/C=C/c1ccc(C(=O)OCC)[nH]1, the GI50 [1] was 5.69 µM, the TGI [1] was over 100 µM and the GI50 [2] was 6.88 µM. It also gave a TGI [2] of over 100 µM, a GI50 [3] of 6.04 µM and a TGI [3] of over 100 µM. For the same compound, the GI50 [4] was 4.56 µM, the TGI [4] was over 100 µM and the GI50 [5] was 2.82 µM. The TGI [5] was 14.2 µM, the GI50 [6] was 4.42 µM and the TGI [6] was over 100 µM. It also gave a GI50 [7] of 7.16 µM, a TGI [7] of over 100 µM and a GI50 [8] of 24.7 µM. It also gave a TGI [8] of over 100 µM, a GI50 [9] of 11.3 µM and a TGI [9] of over 100 µM. It also gave a GI50 [10] of 5.23 µM and a TGI [10] of over 100 µM.
Cc1c2ncccc2c(C)c2c1[nH]c1ccccc12 gave a TGI [1] of 21.1 µM, a TGI [2] of 26.5 µM and a TGI [3] of 35.3 µM. For the same compound, the TGI [4] was 17.3 µM, the TGI [5] was 25.7 µM and the TGI [6] was 6.5 µM. For the same compound, the TGI [7] was 26 µM, the TGI [8] was 26.7 µM and the TGI [9] was 32 µM. The TGI [10] was 29.2 µM.
Compound CC(=O)O/C(C)=C\C(=O)O/N=C(\N)c1ccc(C)cc1 has a TGI [1] of over 100 µM, a TGI [2] of over 100 µM and a TGI [3] of 41.5 µM. It also gave a TGI [4] of 43.1 µM, a TGI [5] of over 100 µM and a TGI [6] of over 100 µM. For the same compound, the TGI [7] was 48.4 µM, the TGI [8] was over 100 µM and the TGI [9] was over 100 µM. It also gave a TGI [10] of 56.7 µM.
In the case of O=C(/C=C/c1ccc([N+](=O)[O-])o1)NNC(=O)c1cc2ccccc2cc1O, the GI50 [1] is reported as 3.95 µM, the TGI [1] is reported as over 100 µM and the GI50 [2] is reported as 0.688 µM. For the same compound, the TGI [2] was 2.24 µM, the GI50 [3] was 0.441 µM and the TGI [3] was over 100 µM. The GI50 [4] was 0.557 µM, the TGI [4] was 1.72 µM and the GI50 [5] was 2.88 µM. For the same compound, the TGI [5] was over 100 µM, the GI50 [6] was 0.97 µM and the TGI [6] was over 100 µM. It also gave a GI50 [7] of 1.05 µM, a TGI [7] of 5.03 µM and a GI50 [8] of 4.6 µM. For the same compound, the TGI [8] was over 100 µM, the GI50 [9] was 0.906 µM and the TGI [9] was 3.92 µM. It also gave a GI50 [10] of 0.694 µM and a TGI [10] of 2.26 µM.
Work on Cc1cc(O)cc(C)c1/C=C/c1cncc(C(=O)N(C)C)c1 yielded a GI50 [1] of over 25 µM, a TGI [1] of over 25 µM and a GI50 [2] of over 25 µM. For the same compound, the TGI [2] was over 25 µM, the GI50 [3] was over 25 µM and the TGI [3] was over 25 µM. For the same compound, the GI50 [4] was over 25 µM, the TGI [4] was over 25 µM and the GI50 [5] was over 25 µM. The TGI [5] was over 25 µM, the GI50 [6] was over 25 µM and the TGI [6] was over 25 µM. The GI50 [7] was over 25 µM, the TGI [7] was over 25 µM and the GI50 [8] was over 25 µM. For the same compound, the TGI [8] was over 25 µM, the GI50 [9] was over 25 µM and the TGI [9] was over 25 µM. For the same compound, the GI50 [10] was over 25 µM and the TGI [10] was over 25 µM.
Work on Cc1ccc(C)c(NC(=O)/C(=N\NC(N)=S)C(C#N)c2ccccc2)c1 (centres undefined) yielded a TGI [1] of over 100 µM, a TGI [2] of over 100 µM and a TGI [3] of over 100 µM. It also gave a TGI [4] of over 100 µM, a TGI [5] of over 100 µM and a TGI [6] of over 100 µM. The TGI [7] was over 100 µM, the TGI [8] was over 100 µM and the TGI [9] was over 100 µM. The TGI [10] was over 100 µM.
Cc1c(C(=O)CC(=O)C(=O)NC2C3CC4CC(C3)CC2C4)[n+](=O)c2ccccc2n1[O-] (centres undefined) showed a TGI [1] of over 100 µM, a TGI [2] of over 100 µM and a TGI [3] of over 100 µM. For the same compound, the TGI [4] was over 100 µM, the TGI [5] was over 100 µM and the TGI [6] was over 100 µM. The TGI [7] was over 100 µM, the TGI [8] was over 100 µM and the TGI [9] was over 100 µM. For the same compound, the TGI [10] was over 100 µM.
O=C1/C(=C\c2cccs2)Oc2ccccc21 showed a TGI [1] of over 100 µM, a TGI [2] of over 100 µM and a TGI [3] of over 100 µM. It also gave a TGI [4] of over 100 µM, a TGI [5] of over 100 µM and a TGI [6] of over 100 µM. The TGI [7] was over 100 µM, the TGI [8] was over 100 µM and the TGI [9] was over 100 µM. The TGI [10] was over 100 µM.
For c1ccc(COc2ccc3[nH]c4c(ncc5[nH]c6ccccc6c54)c3c2)cc1, the TGI [1] was 34.9 µM, the TGI [2] was 31.6 µM and the TGI [3] was 40.7 µM. For the same compound, the TGI [4] was 27 µM, the TGI [5] was 17.8 µM and the TGI [6] was 31.6 µM. For the same compound, the TGI [7] was 35.3 µM, the TGI [8] was 33.5 µM and the TGI [9] was 32.8 µM. For the same compound, the TGI [10] was 35.3 µM.
